In one series the test system is mammalian cells. As to conditions: in vitro tests; ref [21],[22]; cited from earlier work.
The subject of the next series is CoQ-binding site in SQOR. As to conditions: in vitro tests; ref [21],[22]; cited from earlier work.
For series [1], the system named is murine model of heart failure. As to conditions: ref [21],[22]; cited from earlier work.
Series [2] is described as follows: Mouse plasma protein binding. In kind it is in vitro ADME.
The target in series [3] is human sulfide:quinone oxidoreductase (SQOR) (Homo sapiens, UniProt Q9Y6N5). Briefly: SQOR inhibition. In kind it is biochemical.
In a further series the test system is Caco-2. In words: Caco-2 permeability. The format is in vitro ADME. (Caco-2 monolayers are a common model of the intestinal barrier.)

SMILES strings stand for the structures.

human sulfide:quinone oxidoreductase (SQOR), sequence (Q9Y6N5 whole entry): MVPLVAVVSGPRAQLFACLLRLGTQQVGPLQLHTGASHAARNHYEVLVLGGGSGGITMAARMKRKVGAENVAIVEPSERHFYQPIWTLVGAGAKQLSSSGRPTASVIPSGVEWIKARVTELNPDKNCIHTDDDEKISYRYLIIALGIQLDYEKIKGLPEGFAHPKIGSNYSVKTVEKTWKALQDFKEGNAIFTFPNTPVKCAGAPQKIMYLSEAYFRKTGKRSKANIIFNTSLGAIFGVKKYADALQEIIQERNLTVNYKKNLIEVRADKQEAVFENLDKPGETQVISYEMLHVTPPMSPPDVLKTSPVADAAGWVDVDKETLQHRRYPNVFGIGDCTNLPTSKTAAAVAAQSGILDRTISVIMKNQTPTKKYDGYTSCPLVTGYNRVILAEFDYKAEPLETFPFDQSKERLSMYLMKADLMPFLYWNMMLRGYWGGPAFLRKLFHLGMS

Take `COc1nc(-c2ncccc2C)cc(-c2ccc(N)cc2)c1C#N` [Compound 19]: the “toxicity in mammalian cells” value in the series with mammalian cells is “little or no toxicity”. The “specificity for the CoQ-binding site in SQOR” value in the series on CoQ-binding site in SQOR is reported as “high degree of specificity”. Also, the “effect on cardiac function and progression to heart failure” value in series [1] was “preserves cardiac function and prevents the progression to heart failure”. Moreover, the “Mouse Plasma Protein Binding (% bound)” value in series [2] was found to be 97.8 % bound.
As for `COc1nc(-c2ccccc2)cc(-c2ccc(Cl)cc2Cl)c1C#N` [Compound 7], the “activity in IC50 assay (in words)” value in series [3] was “inactivity”.
On to `COc1nc(-c2ncccc2C)cc(-c2ccc(F)cc2)c1C#N` [Compound 15], for which the “Caco-2 permeability A→B” value in the series on Caco-2 (A→B) was 0.455 1 × 10^−6 cm/s. Further, the “Caco-2 permeability B→A” value in the series on Caco-2 (B→A) is recorded as 0.769 1 × 10^−6 cm/s. The “Mouse Plasma Protein Binding (% bound)” value in series [2] came to 99.64 % bound.
`CCOc1nc(-c2ccccc2)nc(-c2ccccc2)c1C#N` [Compound 24]: in series [3] (SQOR inhibition, 24 versus 21), the “fold less active than the equivalent pyridine 21” value is 2 fold.
